Measured values as given in patent US8304371B2, “Insecticidal arylpyrrolines” (Bayer Cropscience AG, priority 2008, dated 2012).
Where two headings read alike, the source gives them in different places.

Tests used:
Type in all cases: in vivo
[1] = test system: Tobacco Cutworm (Spodoptera litura) Larvae; assay: Test against tobacco cutworm (Spodoptera litura) larvae, leaf dip; settings: active compound concentration 100 ppm; third-instar larvae; after 7 days
Protocol: (§1) Unless nomentioned otherwise, the test solutions were prepared as follows:
(§2) Containing as solvent: Dimethylformamide, 3 parts by weight; and as emulsifier: Polyoxyethylene alkyl phenyl ether, 1 part by weight
(§3) To prepare the test solution, 1 part by weight of an active compound is mixed with the above-mentioned amount of solvent containing the above-mentioned amount of emulsifier, and the mixture is diluted with water to the desired concentration.
The leaves of sweet potato were immersed in the test solution at the appropriate concentration, and the leaves were dried in air. The leaves were then placed in a petri dish having a diameter of 9 cm, and ten third-instar larvae of tobacco cutworm were released therein. The petri dish was placed in a temperature chamber at 25° C. After 2 days and 4 days sweet potato leaves were additionally added. After 7 days, the number of dead larvae was counted, to calculate the insecticidal activity. An insecticidal activity of 100% means that all larvae were killed, whereas an insecticidal activity of 0% means that no larva was killed. In the current test, the results of two petri dishes for each partition were averaged.

[2] = test system: Two-Spotted Spider Mite (Tetranvchus urticae); assay: Test against two-spotted spider mite, spray on kidney bean; settings: active compound concentration 100 ppm; adult mites; after 7 days
Protocol: as §1, §2, §3
50 to 100 adult two-spotted spider mites were inoculated onto the leaves of kidney beans at the two-true leaf stage, which plant had been cultivated in a pot having a diameter of 6 cm. After one day, test solution at the appropriate concentration was sprayed thereon in a sufficient amount using a spray gun. After the spraying, the plant pot was placed inside a greenhouse, and after 7 days, the acaricidal activity was calculated. An acaricidal activity of 100% means that all mites were killed, whereas an acaricidal activity of 0% means that no mite was killed.

[3] = test system: Cucurbit Leaf Beetle (Aulacophora femoralis); assay: Test against cucurbit leaf beetle, cucumber leaf dip; settings: active compound concentration 100 ppm; second-instar larvae; after 7 days
Protocol: as §1, §2, §3
Cucumber leaves were immersed in the test solution at the appropriate concentration, and the leaves were dried in air. The leaves were then placed in a plastic cup containing aseptically sterilized black soil, and five second-instar larvae of cucurbit leaf beetle were released therein. After 7 days, the number of dead larvae was counted, and thus the insecticidal activity was calculated. An insecticidal activity of 100% means that all beetles were killed, whereas an insecticidal activity of 0% means that no beetle was killed.

[4] = test system: Strain of Green Peach Aphid (Mvzus persicas) which is Resistant to Organic Phosphorus and Carbamate Agents; assay: Test against resistant green peach aphid, spray on egg plant; settings: active compound concentration 500 ppm; after 7 days
Protocol: as §1, §2, §3
About 30 to 50 of the resistant green peach aphids were inoculated per seedling, onto the leaves of egg plant at the two-true leaf stage, which plant had been cultivated in a pot having a diameter of 6 cm. One day after the inoculation, the test solution at the appropriate concentration was sprayed thereon in a sufficient amount using a spray gun. After the spraying, the plant pot was placed in a greenhouse at 28° C., and after 7 days, the insecticidal activity was calculated. An insecticidal activity of 100% means that all aphids were killed, whereas an insecticidal activity of […] means that no aphid was killed. The test was repeated two times.

[5] = test system: Cat Fleas (Ctenocephalides fells); assay: Test against cat fleas, blood feeding; settings: for mortality at 100 ppm: Ctenocephalides, 48 h, read-out: mortality rate
Protocol: (§4) Solvent: Dimethylsulfoxide
About 10 to 15 adult cat fleas are provided in a container exclusive for fleas. An exclusive container containing the test solution is covered with Parafilm, reversed upside down, and then mounted on top of the flea container, so that the cat fleas can suck the blood in the container. The test solution is maintained at 37° C., and the flea container is maintained at room temperature. After 2 days the mortality rate of the cat fleas is measured. 100% means that all of the cat fleas have been killed, while 0% means that all are alive.

[6] = test system: Cattle Tick (Boophilus microplus); assay: Test against cattle tick, injection; settings: 20 μg/animal injected; after 7 days; 100% means that all eggs are infertile
Protocol: as §4
In order to make a suitable test solution, 10 mg of an active compound is dissolved in 0.5 ml of the above mentioned solvent, and the mixture is diluted with water to a predetermined concentration.
The test solution is injected into the abdomens of five fully-fed female adult cattle ticks. The cattle ticks are transferred to a replica plate, and are bred in a breeding vessel for a certain time period. Egg deposition of fertile eggs is monitored.
After 7 days the mortality rate of the cattle ticks is measured. 100% means that all eggs are infertile; and 0% means that all eggs are fertile.

[7] = test system: Sheep Blowfly (Lucillia cuprina); assay: Test against sheep blowfly; settings: active compound concentration 100 ppm; after 2 days
Protocol: as §4
(§5) In order to make a suitable test solution, 10 mg of an active compound is dissolved in 0.5 ml of the solvent, and the mixture is diluted with water to a predetermined concentration.
Minced horse meat having a size of 1 square centimeter, and 0.5 ml of the test solution are placed in a test tube, and about 20 to 30 adult sheep blowflies are introduced therein.
After 2 days the mortality rate of the sheep blowflies is measured. 100% means that all of the sheep blowflies have been killed, and 0% means that all are alive.

[8] = test system: Housefly (Musca domestica); assay: Test against housefly; settings: for mortality at 100 ppm: Musca domestica, 48 h, read-out: mortality rate
Protocol: as §4, §5
In a preliminary stage of the test, a piece of sponge having a certain size is soaked with a mixture of sugar and the test solution is placed in a test container. Ten adult houseflies are introduced to the container, and the container is covered with a perforated lid.
After 2 days, the mortality rate of the houseflies is measured. At that time, 100% means that all of the houseflies have been killed, and 0% means that all are alive.

[9] = test system: Nymphs of the tick Amblyomma hebraeum; assay: Amblyomma hebraeum test, nymph immersion; settings: 48 h, read-out: activity (mortality in %)
Protocol: as §4
To produce a suitable preparation of active compound. 1 part by weight of active compound is mixed with the stated amount of solvent, and the concentrate is diluted with containing solvent to the desired concentration.
Nymphs of the tick Amblyomma hebraeum are placed in perforated plastic beakers and immersed in aqueous compound solution for one minute. Ticks are transferred to a filter paper in a Petri dish and incubated in a climate chamber for 42 days.
After 2 days mortality in % is determined. 100% means that all the ticks have been killed; 0% means that none of the ticks have been killed.

[10] = test system: adult engorged female Boophilus microplus ticks; assay: Boophilus microplus test, immersion of engorged females; settings: Rhipicephalus microplus, 168 h, read-out: activity (mortality in %)
Protocol: Solvent: Dimethylsulfoxid
To produce a suitable preparation of active compound, 10 mg of active compound are dissolved in 0.5 ml solvent, and the concentrate is diluted with water to the desired concentration.
Eight to ten adult engorged female Boophilus microplus ticks are placed in perforated plastic beakers and immersed in aqueous compound solution for one minute. Ticks are transferred to a filter paper in a plastic tray. Egg deposition of fertile eggs is monitored after.
After 7 days mortality in % is determined. 100% means that all the ticks have been killed; 0% means that none of the ticks have been killed.

[11] = active compound concentration 100 ppm in blood, adult fleas, after 2 days
[12] = application rate 100 ppm, immersed one minute, after 7 days
[13] = application rate 100 ppm, immersed one minute, after 2 days

| SMILES | insecticidal activity [1] | acaricidal activity [2] | insecticidal activity [3] | insecticidal activity [4] | mortality rate [5, 11] | mortality rate [6] | mortality rate [7] | mortality rate ([8]; active compound concentration 100 ppm, adult houseflies, after 2 days) | mortality at 100 ppm [5] | mortality at 100 ppm [8] | mortality at 100 ppm [9] | mortality at 100 ppm [10] | mortality at 100 ppm [5, 11] | mortality at 100 ppm [10, 12] | mortality at 100 ppm [9, 13] |
| --- | --- | --- | --- | --- | --- | --- | --- | --- | --- | --- | --- | --- | --- | --- | --- |
| FC(F)(F)C1(c2cc(Cl)cc(Cl)c2)CN=C(c2ccc(-n3cncn3)c(Br)c2)C1 (stereo not shown) [1-21] | 100% | 100% | 100% | 100% | at least 90% | 100% | 100% | 100% |  |  |  |  |  |  |  |
| CS/C(=N\C[Si](C)(C)C)c1ccc(COC(C)=O)c2ccccc12 [15-2, {4-[(Z)-(methylsulfanyl){[(trimethylsilyl)methyl]imino}methyl]naphthalen-1-yl}methyl acetate] |  |  |  |  |  |  |  |  | ≥ 80% | ≥ 80% | ≥ 80% | ≥ 80% |  |  |  |
| CC(=O)NCc1ccc(C2=NCC(c3cc(Cl)cc(Cl)c3)(C(F)(F)F)C2)cc1Br (stereo not shown) [2-13, N-{2-bromo-4-[3-(3,5-dichlorophenyl)-3-(trifluoromethyl)-3,4-dihydro-2H-pyrrol-5-yl]benzyl}acetamide] | 100% |  |  |  |  |  |  |  |  | ≥ 80% |  |  | ≥ 80% | ≥ 80% |  |
| N#Cc1cc(C2=NCC(c3cc(Cl)c(Cl)c(Cl)c3)(C(F)(F)F)C2)ccc1-n1cncn1 (stereo not shown) [1-78, 2-(1H-1,2,4-triazol-1-yl)-5-[3-(3,4,5-trichlorophenyl)-3-(trifluoromethyl)-3,4-dihydro-2H-pyrrol-5-yl]-benzonitrile] | 100% | 100% | 100% | 100% |  |  |  |  |  | ≥ 80% |  |  | ≥ 80% | ≥ 80% | ≥ 80% |
| N#Cc1cc(C2=NCC(c3cc(Cl)cc(Cl)c3)(C(F)(F)F)C2)ccc1-n1cncn1 (stereo not shown) [Compound No. 1-39, 5-[3-(3,5-dichlorophenyl)-3-(trifluoromethyl)-3,4-dihydro-2H-pyrrol-5-yl]-2-(1H-1,2,4-triazol-1-yl)benzonitrile] | 100% | 98% | 100% | 98% |  |  | 100% |  |  | 100% |  |  | 100% | ≥ 80% | ≥ 80% |
| CCC(=O)NCc1ccc(C2=NCC(c3cc(C(F)(F)F)cc(C(F)(F)F)c3)(C(F)(F)F)C2)cc1C(F)(F)F (stereo not shown) [2-166] | 100% | 100% | 100% | 100% |  |  |  |  |  |  |  |  |  |  |  |
